Reference: patent publication US20040007689A1, “Process for controlling the hydrate mix of a compound” (Pfizer Inc., priority 2002, published 2004)

Experiments:
[1] = Chemical and thermal stability of DSFF hydration forms and hydrate mixes; assay type: physicochemical; settings: for stability of hydration form (chemical / thermal): hydration forms of DSFF, solid state
[2] = Water content of freeze-dried DSFF product; assay type: physicochemical; settings: DSFF subjected to a typical freeze-drying process

SMILES | stability of hydration form (chemical / thermal) [1] | stability of product of typical freeze-drying process ([1]; DSFF after typical freeze-drying with secondary drying, water content about 1.2% w/w (below monohydrate stoichiometry)) | water content of product of typical freeze-drying process [2]
O.O.O.O=P([O-])([O-])OC(Cn1cncn1)(Cn1cncn1)c1ccc(F)cc1F.[Na+].[Na+] [trihydrate, DSFF Trihydrate] | chemically and thermally stable |  | 
O=P([O-])([O-])OC(Cn1cncn1)(Cn1cncn1)c1ccc(F)cc1F.[Na+].[Na+] [DSFF, disodium salt of fosfluconazole] |  | chemically unstable and degrades | about 1.2 % w/w
O.O.O.O.O.O.O=P([O-])([O-])OC(Cn1cncn1)(Cn1cncn1)c1ccc(F)cc1F.[Na+].[Na+] [hexahydrate, DSFF Hexahydrate] | chemically and thermally stable |  | 
